Measurements: patent publication US20250101041A1, “POSITIVE ALLOSTERIC MODULATORS OF THE MUSCARINIC ACETYLCHOLINE RECEPTOR M4” (Vanderbilt University, priority 2022, published 2025)

Biological target: T1, human mAChR M4 (Homo sapiens, UniProt P08173)
T1 construct: expressed in transfected cells; host or cells: CHO-K1 (American Type Culture Collection), stably expressing hM4 and Gqi5
T1 sequence (P08173 1-479): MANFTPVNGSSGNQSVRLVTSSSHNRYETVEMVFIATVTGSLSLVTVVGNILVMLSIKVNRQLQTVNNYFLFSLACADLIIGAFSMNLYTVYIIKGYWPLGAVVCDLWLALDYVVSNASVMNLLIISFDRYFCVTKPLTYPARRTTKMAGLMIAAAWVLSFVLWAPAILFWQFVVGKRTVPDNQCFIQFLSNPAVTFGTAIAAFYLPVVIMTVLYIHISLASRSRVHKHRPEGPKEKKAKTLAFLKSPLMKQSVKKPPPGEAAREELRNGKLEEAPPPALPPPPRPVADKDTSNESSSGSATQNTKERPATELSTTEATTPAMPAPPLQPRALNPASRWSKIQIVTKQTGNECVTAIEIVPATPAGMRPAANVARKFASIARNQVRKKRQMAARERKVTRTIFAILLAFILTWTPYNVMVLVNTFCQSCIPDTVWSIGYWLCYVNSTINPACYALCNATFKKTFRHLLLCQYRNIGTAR
Experiment: mAChR M4 cell-based functional assay: calcium mobilization (Fluo-4, FDSS), potentiation of EC20 acetylcholine response in hM4-Gqi5 CHO-K1 cells
Conditions: human M4; for Emax at 30 µM: CHO-K1, % ACh maximum at 30 μM; for EC50: potentiation of EC20 acetylcholine response, calcium mobilization
Outline: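 Readout is the fluorescence-ratio rise at 1 Hz on FDSS, with PAM activity taken as concentration-dependent enhancement of the EC20 acetylcholine response, fitted four-parameter for EC50/Emax. hM4-Gqi5 CHO-K1 cells carried Fluo-4 AM dye; test compounds (11 points, 1:3) preceded EC20 acetylcholine additions at 144 s and 230 s.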

Row | Compound | Emax at 30 µM | EC50
1 | Cc1c(N2CCc3ncc(-c4cnn(C5CCOCC5)c4)cc3C2)nn2c(=O)ccnc2c1C [Compound 1-192, 8,9-dimethyl-7-(3-(1-(tetrahydro-2H-pyran-4-yl)-1H-pyrazol-4-yl)-7,8-dihydro-1,6-naphthyridin-6(5H)-yl)-4H-pyrimido[1,2-b]pyridazin-4-one] | 64% | 0.139 µM
2 | Cc1c(N2CCc3ncc(-c4cncc(F)c4)cc3C2)nn2c(=O)ccnc2c1C [Compound 1-103, 7-(3-(5-fluoropyridin-3-yl)-7,8-dihydro-1,6-naphthyridin-6(5H)-yl)-8,9-dimethyl-4H-pyrimido[1,2-b]pyridazin-4-one] | 93% | 0.449 µM
3 | COc1ccc(-c2cnc3c(c2)CN(c2nn4c(=O)cc(C(F)F)nc4c(C)c2C)CC3)cn1 [Compound 1-170, 2-(difluoromethyl)-7-(3-(6-methoxypyridin-3-yl)-7,8-dihydro-1,6-naphthyridin-6(5H)-yl)-8,9-dimethyl-4H-pyrimido[1,2-b]pyridazin-4-one] | 95% | 0.185 µM
4 | Cc1ccc(-c2cnc3c(c2)CN(c2nn4c(=O)cc(C(=O)NC5(C#N)CC5)nc4cc2C)CC3)cn1 [Compound 1-76, N-(1-cyanocyclopropyl)-8-methyl-7-(3-(6-methylpyridin-3-yl)-7,8-dihydro-1,6-naphthyridin-6(5H)-yl)-4-oxo-4H-pyrimido[1,2-b]pyridazine-2-carboxamide] | 79% | 0.149 µM
5 | Cc1cc(N(C)C)ncc1-c1cnc2c(c1)CN(c1nn3c(=O)ccnc3cc1C)CC2 [Compound 1-407, 7-(3-(6-(dimethylamino)-4-methylpyridin-3-yl)-7,8-dihydro-1,6-naphthyridin-6(5H)-yl)-8-methyl-4H-pyrimido [1,2-b]pyridazin-4-one] | 92% | 0.132 µM
6 | COCc1cc(=O)n2nc(N3CCc4ncc(-c5cc(F)ccc5F)cc4C3)c(C)cc2n1 [Compound 1-336, 7-(3-(2,5-difluorophenyl)-7,8-dihydro-1,6-naphthyridin-6(5H)-yl)-2-(methoxymethyl)-8-methyl-4H-pyrimido[1,2-b] pyridazin-4-one] | 66% | 0.357 µM
7 | Cc1cc(Cl)ncc1-c1cnc2c(c1)CN(c1nn3c(=O)ccnc3cc1C)CC2 [Compound 1-333, 7-(3-(6-chloro-4-methylpyridin-3-yl)-7,8-dihydro-1,6-naphthyridin-6(5H)-yl)-8-methyl-4H-pyrimido[1,2-b]pyridazin-4-one] | 69% | 0.247 µM
8 | COc1cncc(-c2cnc3c(c2)CN(c2nn4c(=O)cc(C)nc4c(C)c2C)CC3)c1 [Compound 1-199, 7-(3-(5-methoxypyridin-3-yl)-7,8-dihydro-1,6-naphthyridin-6(5H)-yl)-2,8,9-trimethyl-4H-pyrimido[1,2-b]pyridazin-4-one] | 74% | 0.526 µM
9 | Cc1cc(=O)n2nc(N3CCc4ncc(-c5ccco5)cc4C3)c(C)cc2n1 [Compound 1-301, 7-(3-(furan-2-yl)-7,8-dihydro-1,6-naphthyridin-6(5H)-yl)-2,8-dimethyl-4H-pyrimido[1,2-b]pyridazin-4-one] | 91% | 0.111 µM
10 | Cc1cc2nccc(=O)n2nc1N1CCc2ncc(-c3cccnc3C(C)C)cc2C1 [Compound 1-422, 7-(3-(2-isopropylpyridin-3-yl)-7,8-dihydro-1,6-naphthyridin-6(5H)-yl)-8-methyl-4H-pyrimido [1,2-b]pyridazin-4-one] | 64% | 1.72 µM
11 | Cc1cc2nc(C3CC3)cc(=O)n2nc1N1CCc2ncc(C(F)(F)F)cc2C1 [Compound 1-27, 2-cyclopropyl-8-methyl-7-(3-(trifluoromethyl)-7,8-dihydro-1,6-naphthyridin-6(5H)-yl)-4H-pyrimido[1,2-b]pyridazin-4-one] | 76% | 0.038 µM
12 | Cc1cc(C(F)F)ncc1-c1cnc2c(c1)CN(c1nn3c(=O)ccnc3cc1C)CC2 [Compound 1-375, 7-(3-(6-(difluoromethyl)-4-methylpyridin-3-yl)-7,8-dihydro-1,6-naphthyridin-6(5H)-yl)-8-methyl-4H-pyrimido [1,2-b]pyridazin-4-one] | 75% | 0.273 µM
13 | Cc1cc(F)cnc1-c1cnc2c(c1)CN(c1nn3c(=O)ccnc3cc1C)CC2 [Compound 1-350, 7-(3-(5-fluoro-3-methylpyridin-2-yl)-7,8-dihydro-1,6-naphthyridin-6(5H)-yl)-8-methyl-4H-pyrimido[1,2-b]pyridazin-4-one] | 72% | 3.45 µM

The remaining lines, values ahead:

Row | Emax at 30 µM | EC50 | Compound
14 | 97% | 0.048 µM | Cc1cc2nccc(=O)n2nc1N1CCc2ncc(Nc3ccncc3Cl)cc2C1 [Compound 2-113, 7-(3-((3-chloropyridin-4-yl)amino)-7,8-dihydro-1,6-naphthyridin-6(5H)-yl)-8-methyl-4H-pyrimido[1,2-b]pyridazin-4-one]
15 | 90% | 0.003 µM | Cc1cc2ncc(Cl)c(=O)n2nc1N1CCc2ncc(Nc3ccncc3F)cc2C1 [Compound 2-157, 3-chloro-7-(3-((3-fluoropyridin-4-yl)amino)-7,8-dihydro-1,6-naphthyridin-6(5H)-yl)-8-methyl-4H-pyrimido[1,2-b]pyridazin-4-one]
16 | 85% | 0.019 µM | Cc1cc2n(n1)CCCN2c1cnc2c(c1)CN(c1nn3c(=O)cc(C(F)F)nc3cc1C)CC2 [Compound 2-28, 2-(difluoromethyl)-8-methyl-7-(3-(2-methyl-6,7-dihydropyrazolo[1,5-a]pyrimidin-4(5H)-yl)-7,8-dihydro-1,6-naphthyridin-6(5H)-yl)-4H-pyrimido[1,2-b]pyridazin-4-one]
17 | 80% | 0.125 µM | Cc1cc2nccc(=O)n2nc1N1CCc2ncc(N3CC(C)(C)Oc4ccccc43)cc2C1 [Compound 2-51, 7-(3-(2,2-dimethyl-2,3-dihydro-4H-benzo[b][1,4]oxazin-4-yl)-7,8-dihydro-1,6-naphthyridin-6(5H)-yl)-8-methyl-4H-pyrimido[1,2-b]pyridazin-4-one]
18 | 82% | 0.027 µM | Cc1cc2nc(C)c(C)c(=O)n2nc1N1CCc2ncc(N3CCCn4nccc43)cc2C1 [Compound 2-13, 7-(3-(6,7-dihydropyrazolo[1,5-a]pyrimidin-4(5H)-yl)-7,8-dihydro-1,6-naphthyridin-6(5H)-yl)-2,3,8-trimethyl-4H-pyrimido[1,2-b]pyridazin-4-one]
19 | 95% | 0.022 µM | Cc1cc2nccc(=O)n2nc1N1CCc2ncc(N3CCc4ccccc43)cc2C1 [Compound 2-85, 7-(3-(indolin-1-yl)-7,8-dihydro-1,6-naphthyridin-6(5H)-yl)-8-methyl-4H-pyrimido[1,2-b]pyridazin-4-one]
20 | 54% | 1.06 µM | Cc1c(N2CCc3ncc(OCCN4CCOC4=O)cc3C2)nn2c(=O)ccnc2c1C [Compound 3-4, 3-(2-((6-(8,9-Dimethyl-4-oxo-4H-pyrimido[1,2-b]pyridazin-7-yl)-5,6,7,8-tetrahydro-1,6-naphthyridin-3-yl)oxy)ethyl)oxazolidin-2-one]
21 | 92% | 0.008 µM | Cc1cc2nc(C(F)(F)F)cc(=O)n2nc1N1CCc2ncc(Nc3ccncc3F)cc2C1 [Compound 2-160, 7-(3-((3-fluoropyridin-4-yl)amino)-7,8-dihydro-1,6-naphthyridin-6(5H)-yl)-8-methyl-2-(trifluoromethyl)-4H-pyrimido[1,2-b]pyridazin-4-one]
